# Data taken from PubChem BioAssay (NCI).
#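 GI50 = concentration required for 50% inhibition of growth. TGI: total growth inhibition.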
# Key:
# Experiment in all cases: NCI anticancer screen, dose series, 384-well format
# SR leukemia = system: SR leukemia
# MDA-MB-468 breast = system: MDA-MB-468 breast
# SF-295 CNS = system: SF-295 CNS
# NCI-H322M lung = system: NCI-H322M lung
# OVCAR-4 ovarian = system: OVCAR-4 ovarian
# NCI-H23 lung = system: NCI-H23 lung
# M14 melanoma = system: M14 melanoma
# CAKI-1 renal = system: CAKI-1 renal
# SK-MEL-28 melanoma = system: SK-MEL-28 melanoma
# HL-60(TB) leukemia = system: HL-60(TB) leukemia
# HOP-92 NSCLC = system: HOP-92 NSCLC
# MDA-MB-435 melanoma = system: MDA-MB-435 melanoma
# HCT-116 colon = system: HCT-116 colon
# ACHN renal = system: ACHN renal
# NCI/ADR-RES ovarian = system: NCI/ADR-RES ovarian
# UO-31 renal = system: UO-31 renal
# SNB-19 CNS = system: SNB-19 CNS
# COLO 205 colon = system: COLO 205 colon
# HCC-2998 colon = system: HCC-2998 colon
# OVCAR-5 ovarian = system: OVCAR-5 ovarian
# TK-10 renal = system: TK-10 renal
# UACC-62 melanoma = system: UACC-62 melanoma
# HT29 colon = system: HT29 colon
# SK-OV-3 ovarian = system: SK-OV-3 ovarian
# SF-268 CNS = system: SF-268 CNS
# IGROV1 ovarian = system: IGROV1 ovarian
# EKVX NSCLC = system: EKVX NSCLC
# HCT-15 colon = system: HCT-15 colon
# SF-539 CNS = system: SF-539 CNS
# DU-145 prostate = system: DU-145 prostate
# A498 renal = system: A498 renal
# CCRF-CEM leukemia = system: CCRF-CEM leukemia
# NCI-H460 NSCLC = system: NCI-H460 NSCLC
# NCI-H522 lung = system: NCI-H522 lung
# SK-MEL-5 melanoma = system: SK-MEL-5 melanoma
# SN12C renal = system: SN12C renal
# SW-620 colon = system: SW-620 colon
# MDA-MB-231 breast = system: MDA-MB-231 breast
# PC-3 prostate = system: PC-3 prostate
# MCF7 breast = system: MCF7 breast
# SNB-75 CNS = system: SNB-75 CNS
# NCI-H226 lung = system: NCI-H226 lung
# MOLT-4 leukemia = system: MOLT-4 leukemia
# 786-0 renal = system: 786-0 renal
# A549 NSCLC = system: A549 NSCLC
# BT-549 breast = system: BT-549 breast
# U251 glioblastoma = system: U251 glioblastoma
compound,measurement,setting,value
C[C@]12CCCN1CC1=NNC(=O)c3cc(F)cc4[nH]c2c1c34,GI50,SR leukemia,1.27 µM
same,TGI,SR leukemia,2.58 µM
same,GI50,MDA-MB-468 breast,3.57 µM
same,TGI,MDA-MB-468 breast,18.8 µM
same,GI50,SF-295 CNS,10.7 µM
same,TGI,SF-295 CNS,51.9 µM
same,GI50,NCI-H322M lung,23.4 µM
same,TGI,NCI-H322M lung,52.5 µM
same,GI50,OVCAR-4 ovarian,26.5 µM
same,TGI,OVCAR-4 ovarian,79.4 µM
same,GI50,NCI-H23 lung,15.4 µM
same,TGI,NCI-H23 lung,35.5 µM
same,GI50,M14 melanoma,18.3 µM
same,TGI,M14 melanoma,43.4 µM
same,GI50,CAKI-1 renal,18.1 µM
same,TGI,CAKI-1 renal,69.4 µM
same,GI50,SK-MEL-28 melanoma,26.1 µM
same,TGI,SK-MEL-28 melanoma,81.3 µM
same,GI50,HL-60(TB) leukemia,15.6 µM
same,TGI,HL-60(TB) leukemia,29.1 µM
same,GI50,HOP-92 NSCLC,18.4 µM
same,TGI,HOP-92 NSCLC,> 60.9 µM
same,GI50,MDA-MB-435 melanoma,42.4 µM
same,TGI,MDA-MB-435 melanoma,> 100 µM
same,GI50,HCT-116 colon,9 µM
same,TGI,HCT-116 colon,43.3 µM
same,GI50,ACHN renal,24 µM
same,TGI,ACHN renal,> 76.2 µM
same,GI50,NCI/ADR-RES ovarian,20.9 µM
same,TGI,NCI/ADR-RES ovarian,75 µM
same,GI50,UO-31 renal,27.5 µM
same,TGI,UO-31 renal,96.1 µM
same,GI50,SNB-19 CNS,35.2 µM
same,TGI,SNB-19 CNS,97.7 µM
same,GI50,COLO 205 colon,17.8 µM
same,TGI,COLO 205 colon,45.1 µM
same,GI50,HCC-2998 colon,9.2 µM
same,TGI,HCC-2998 colon,27.5 µM
same,GI50,OVCAR-5 ovarian,17.9 µM
same,TGI,OVCAR-5 ovarian,44.5 µM
same,GI50,TK-10 renal,24.1 µM
same,TGI,TK-10 renal,73.9 µM
same,GI50,UACC-62 melanoma,11.7 µM
same,TGI,UACC-62 melanoma,28.1 µM
same,GI50,HT29 colon,22.8 µM
same,TGI,HT29 colon,74.7 µM
same,GI50,SK-OV-3 ovarian,35.5 µM
same,TGI,SK-OV-3 ovarian,> 100 µM
same,GI50,SF-268 CNS,14.5 µM
same,TGI,SF-268 CNS,31.6 µM
same,GI50,IGROV1 ovarian,21.7 µM
same,TGI,IGROV1 ovarian,> 89.6 µM
same,GI50,EKVX NSCLC,20.2 µM
same,TGI,EKVX NSCLC,51.6 µM
same,GI50,HCT-15 colon,32 µM
same,TGI,HCT-15 colon,> 95.3 µM
same,GI50,SF-539 CNS,14.2 µM
same,TGI,SF-539 CNS,33.9 µM
same,GI50,DU-145 prostate,27.9 µM
same,TGI,DU-145 prostate,80 µM
same,GI50,A498 renal,18.4 µM
same,TGI,A498 renal,49 µM
same,GI50,CCRF-CEM leukemia,14.4 µM
same,TGI,CCRF-CEM leukemia,27.8 µM
same,GI50,NCI-H460 NSCLC,4.64 µM
same,TGI,NCI-H460 NSCLC,20.6 µM
same,GI50,NCI-H522 lung,16.8 µM
same,TGI,NCI-H522 lung,44.6 µM
same,GI50,SK-MEL-5 melanoma,19.6 µM
same,TGI,SK-MEL-5 melanoma,36.7 µM
same,GI50,SN12C renal,13.1 µM
same,TGI,SN12C renal,35 µM
same,GI50,SW-620 colon,7.57 µM
same,TGI,SW-620 colon,> 39.2 µM
same,GI50,MDA-MB-231 breast,13.6 µM
same,TGI,MDA-MB-231 breast,60.1 µM
same,GI50,PC-3 prostate,20 µM
same,TGI,PC-3 prostate,> 80.7 µM
same,GI50,MCF7 breast,19.4 µM
same,TGI,MCF7 breast,71.1 µM
same,GI50,SNB-75 CNS,23.3 µM
same,TGI,SNB-75 CNS,> 67.2 µM
same,GI50,NCI-H226 lung,14.8 µM
same,TGI,NCI-H226 lung,50.2 µM
same,GI50,MOLT-4 leukemia,2.48 µM
same,TGI,MOLT-4 leukemia,10.5 µM
same,GI50,786-0 renal,29 µM
same,TGI,786-0 renal,> 80.9 µM
same,GI50,A549 NSCLC,29.1 µM
same,TGI,A549 NSCLC,> 100 µM
same,GI50,BT-549 breast,16.4 µM
same,TGI,BT-549 breast,42.2 µM
same,GI50,U251 glioblastoma,13.6 µM
same,TGI,U251 glioblastoma,> 79.2 µM
